Values after ≈ are worked out from the molar mass of the structure shown. Values joined by “and” are separate entries in the source; they are usually repeats but may differ in a detail not shown here. Equal values may be shown once. Read-outs that look alike come from different tables or passages of the source.
Columns and labels:
[1] = target: T1, full-length B-Catenin (Uniprot ID P35222) (Homo sapiens, UniProt P35222); assay: Alphascreen binding assay (beta-catenin / biotin-TCF4 10-53)
T1 construct: 65 nM full-length B-Catenin (Uniprot ID P35222)
T1 sequence (P35222 1-781): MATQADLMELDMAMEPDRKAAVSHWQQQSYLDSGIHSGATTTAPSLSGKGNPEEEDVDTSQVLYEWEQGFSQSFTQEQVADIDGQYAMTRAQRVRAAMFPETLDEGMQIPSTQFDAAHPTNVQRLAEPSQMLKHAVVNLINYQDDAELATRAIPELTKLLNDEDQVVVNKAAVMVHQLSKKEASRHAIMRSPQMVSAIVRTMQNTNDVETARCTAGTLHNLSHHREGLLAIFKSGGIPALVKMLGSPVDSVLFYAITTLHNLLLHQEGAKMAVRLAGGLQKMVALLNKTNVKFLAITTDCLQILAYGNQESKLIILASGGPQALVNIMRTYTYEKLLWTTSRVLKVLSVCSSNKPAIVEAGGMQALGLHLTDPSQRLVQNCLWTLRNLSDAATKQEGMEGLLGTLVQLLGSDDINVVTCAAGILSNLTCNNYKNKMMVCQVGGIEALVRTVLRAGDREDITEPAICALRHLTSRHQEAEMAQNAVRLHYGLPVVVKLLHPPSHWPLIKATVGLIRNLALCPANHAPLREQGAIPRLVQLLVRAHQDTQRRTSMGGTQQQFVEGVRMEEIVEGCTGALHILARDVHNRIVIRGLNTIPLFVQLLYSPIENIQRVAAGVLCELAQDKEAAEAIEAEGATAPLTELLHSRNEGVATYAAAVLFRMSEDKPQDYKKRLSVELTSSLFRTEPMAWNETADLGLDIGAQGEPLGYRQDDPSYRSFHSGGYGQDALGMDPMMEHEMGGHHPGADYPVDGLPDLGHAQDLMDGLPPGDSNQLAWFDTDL
Description: In some embodiments, an assay is an Alphascreen binding assay. A useful protocol is described below as an example.
Alphascreen binding assay: Using the AlphaScreen Histidine (Nickel Chelate) Detection Kit (PerkinElmer), peptide solutions were prepared in buffer (50 mM Tris pH 8.0, 250 mM NaCl, 2% glycerol, 0.03% Tween-20, 0.01% TritonX-100, 0.1% BSA w/v) using a 3-fold serial dilution from 10 uM to 5 nM. Probe solution (65 nM full-length B-Catenin (Uniprot ID P35222), mixed with 10 nM biotin labeled TCF4 residues 10-53 (Uniprot ID Q9NQB0) peptide in buffer) was prepared and 4 uL per well was plated in a white polystyrene 384-well plate (Corning). Equal volume of the titrated peptide was added to the plate and incubated for 15 minutes at 20° C. Then 4 uL of donor and 4 uL acceptor beads at 10 ug/mL were added to the plate, for a 16 uL reaction pool and protected from light for 60 minutes at 20° C. prior to read. Reads were performed on a CLARIOstar plate reader (BMG Labtech) in duplicate, and data were fitted to a 1:1 binding model with hill slope using an in-house script. All provided concentrations are final concentrations.

CHI Log D procedure = format: physicochemical; settings: for CHI Log D: pH 7.4; for chromatographic logD: pH 7.4, CHI Log D
[2] = system: TCF/LEF luciferase Reporter in DLD1 cells; assay: TCF reporter assay (DLD1 TCF/LEF luciferase reporter, Bright-Glo); format: cell-based; settings: for DLD1 TCF c2 BrightGlo % Inhibition: replicates
Method in brief: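 DLD1 cells stably carrying a TCF/LEF luciferase reporter were plated at 5000 cells/well in RPMI + 4% FBS and treated overnight with a 1:2 compound dilution series. Bright-Glo luminescence read on day 3; viability by CellTiter-Glo. Absolute IC50 determined.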

[3] = target: T2, beta-catenin/TCF4 engagement (Homo sapiens, UniProt P35222); assay: Nano-BRET target engagement assay (B-cat-Halo & TCF4-Luc in HEK293 cells); format: cell-based; settings: read-out: NanoBRET Abs IC50
T2 construct: expressed in transfected cells; host or cells: HEK293
T2 sequence (P35222 1-781): T1 sequence (P35222 1-781)

Solubility in PBS = format: physicochemical
Method in brief: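 Solubility is derived from HPLC peak areas: the ratio of the PBS supernatant peak to a 50 μM DMSO peptide peak, times 50 uM.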

[4] = target: T3, full-length beta-Catenin (Uniprot ID P35222) (Homo sapiens, UniProt P35222); assay: Fluorescence polarization IC50 (beta-catenin / 5FAM-TCF4 10-53 competition); format: binding
T3 construct: 10 nM full-length beta-Catenin (Uniprot ID P35222)
T3 sequence (P35222 1-781): T1 sequence (P35222 1-781)

[5] = absolute IC50, read-out: DLD1 reporter assay Abs IC50
[6] = first dose = 20 uM (plate map), 20 µM
[7] = read-out: DLD1 4% Abs IC50, DLD1 4%
[8] = third dose = 5 uM (plate map), 5 µM

| EC50 [1] [µM] | CHI Log D (CHI Log D procedure) | chromatographic logD (CHI Log D procedure) | IC50 [2, 5] [µM] | IC50 [2, 7] [µM] | IC50 ([3]; absolute IC50) [µM] | Solubility (Solubility in PBS; Solubility (uM)) [µM] | IC50 ([4]; read-out: beta-Catenin FP IC50) [nM] | IC50 [3] [µM] | Solubility (Solubility in PBS) [µM] | IC50 ([4]; fluorescence polarization, beta-catenin, read-out: FP EC50) [nM] | SMILES | DLD1 TCF c2 BrightGlo % Inhibition [2, 6] | DLD1 TCF c2 BrightGlo % Inhibition ([2]; 0.625 µM) | DLD1 TCF c2 BrightGlo % Inhibition ([2]; 1.25 µM) | DLD1 TCF c2 BrightGlo % Inhibition ([2]; 2.5 µM) | DLD1 TCF c2 BrightGlo % Inhibition ([2]; 10 µM) | DLD1 TCF c2 BrightGlo % Inhibition [2, 8] |
| --- | --- | --- | --- | --- | --- | --- | --- | --- | --- | --- | --- | --- | --- | --- | --- | --- | --- |
| 7.01 | 1.409 |  |  |  |  |  |  |  |  |  | CC(=O)N[C@@H](Cc1ccccc1)C(=O)N[C@@H](CC(=O)O)C(=O)N[C@@H](C)C(=O)N[C@]1(C)CCCCCCC=CCOC(=O)N2CC[C@@](C(=O)N[C@@H](CC3CCCC3)C(=O)N[C@@H](Cc3c[nH]c4ccccc34)C(=O)N[C@@H](CCC(N)=O)C(N)=O)(C2)NC(=O)[C@H](C(C)C)NC(=O)[C@H](Cc2ccccc2)NC(=O)[C@H](C)NC(=O)[C@H](C)NC(=O)[C@H](CC(=O)O)NC(=O)[C@H](CC(=O)O)NC1=O (single isomer, unassigned) [I-94, Ac-Phe-Asp-Ala-R8-Asp-Asp-Ala-Ala-Phe-Val-PyrS-CypA-Trp-Gln-NH2] |  |  |  |  |  |  |
| 6.5 | 1.378 |  |  |  |  |  |  |  |  |  | CC(=O)N[C@@H](Cc1ccccc1)C(=O)N[C@@H](CC(=O)O)C(=O)N[C@@H](C)C(=O)N[C@]1(C)CCCCCCC=CCOC(=O)N2CC[C@@](C(=O)N[C@@H](Cc3ccccc3)C(=O)N[C@@H](Cc3c[nH]c4ccccc34)C(=O)N[C@@H](CCC(N)=O)C(N)=O)(C2)NC(=O)[C@H](C(C)C)NC(=O)[C@H](Cc2ccccc2)NC(=O)[C@H](C)NC(=O)[C@H](C)NC(=O)[C@H](CCCC(=O)O)NC(=O)[C@H](CC(=O)O)NC1=O [I-6, Ac-Phe-Asp-Ala-R8-Asp-Aad-Ala-Ala-Phe-Val-PyrS-Phe-Trp-Gln-NH2] |  |  |  |  |  |  |
| 7.22 |  | 1.17 |  |  |  |  |  |  |  |  | CC(=O)N[C@@H](Cc1ccccc1)C(=O)N[C@@H](CC(=O)O)C(=O)N[C@@H](C)C(=O)N[C@]1(C)CCCC=CCOC(=O)N(C)CCC[C@@](C)(C(=O)N[C@@H](Cc2ccccc2)C(=O)N[C@@H](Cc2c[nH]c3ccccc23)C(=O)N[C@@H](CCC(N)=O)C(N)=O)NC(=O)[C@H](C(C)C)NC(=O)[C@H](Cc2ccccc2)NC(=O)[C@H](C)NC(=O)[C@H](C)NC(=O)[C@H](CC(=O)O)NC(=O)[C@H](CC(=O)O)NC1=O [I-25, Ac-Phe-Asp-Ala-R5-Asp-Asp-Ala-Ala-Phe-Val-SeN-Phe-Trp-Gln-NH2] |  |  |  |  |  |  |
| 0.09 |  |  |  |  |  |  |  |  |  |  | COc1ccc(C[C@@H]2NC(=O)[C@H](C)NC(=O)[C@H](C)NC(=O)[C@H](CCC(=O)O)NC(=O)[C@H](CC(=O)O)NC(=O)C3(CCCC=CCCCCCC[C@@](C)(C(=O)N[C@@H](Cc4ccccc4)C(=O)N[C@@H](Cc4c[nH]c5ccccc45)C(=O)N[C@@H](CCC(N)=O)C(N)=O)NC(=O)[C@H](C(C)C)NC2=O)CCCC=CC[C@]2(CCCN2C(C)=O)C(=O)N[C@@H](CC(=O)O)C(=O)N[C@@H](C)C(=O)N3)cc1 (stereo partly drawn) [I-218, Ac-PL3-Asp-Ala-B5-Asp-Glu-Ala-Ala-MeTyr-Val-S8-Phe-Trp-Gln-NH2] |  |  |  |  |  |  |
|  |  | 2.59 | 17.2 | 10.4 | > 20 | 47 (≈ 90.2 µg/mL) | 6 |  |  |  | CC(=O)N1CCC[C@]12CC=CCCCC1(CCCC=CCCCOC(=O)N3CC[C@@](C(=O)N[C@@H](Cc4ccccc4Cl)C(=O)N[C@@H](Cc4csc5ccccc45)C(=O)N[C@H](CO)CC(C)C)(C3)NC(=O)[C@H](CC(N)=O)NC(=O)[C@H](Cc3ccccc3)NC(=O)[C@H](C)NC(=O)[C@H](C)NC(=O)[C@H](CC(=O)O)NC(=O)[C@H](CC(=O)O)NC1=O)NC(=O)[C@H](CC(C)(C)C)NC(=O)[C@H](CC(=O)O)NC2=O (stereo partly drawn) [I-1080, Ac-PL3-Asp-Npg-B5-Asp-Asp-Ala-Ala-Phe-Asn-PyrS2-2C1F-BztA-Leuo1] | 51.4% and 56.9% and 51.8% | 20.2% and 13.7% and 15.3% | 16.0% and 13.8% and 12.3% | 14.6% and 19.8% and 7.9% | 42.4% and 42.2% and 38.1% | 24.9% and 31.0% and 24.4% |
|  |  | 2.4 | 10 | 10.6 | 16.7 | 43 (≈ 80.7 µg/mL) | 5 |  |  |  | CC(=O)N1CCC[C@]12CC=CCCCC1(CCCC=CCCCOC(=O)N3CC[C@@](C(=O)N[C@@H](Cc4ccccc4Cl)C(=O)N[C@@H](Cc4csc5ccccc45)C(=O)N[C@@H](C)CO)(C3)NC(=O)[C@H](CC(N)=O)NC(=O)[C@H](Cc3ccccc3)NC(=O)[C@H](C)NC(=O)[C@H](C)NC(=O)[C@H](CC(=O)O)NC(=O)[C@H](CC(=O)O)NC1=O)NC(=O)[C@H](CC(C)(C)C)NC(=O)[C@H](CC(=O)O)NC2=O (stereo partly drawn) [I-1081, Ac-PL3-Asp-Npg-B5-Asp-Asp-Ala-Ala-Phe-Asn-PyrS2-2C1F-BztA-Alao1] | 67.2% and 69.3% and 72.3% | 9.2% and 7.1% and 11.5% | 0.8% and 2.4% and 5.4% | 4.5% and 7.9% and 15.2% | 45.6% and 49.8% and 55.3% | 17.5% and 23.8% and 31.0% |
|  |  | 2.33 | 4.8 |  | 14.1 | 48 (≈ 91.5 µg/mL) | 5 |  |  |  | CC(=O)N1CCC[C@]12CC=CCCCC1(CCCC=CCCCOC(=O)N3CC[C@@](C(=O)N[C@@H](Cc4ccccc4Cl)C(=O)N[C@@H](Cc4csc5ccccc45)C(=O)N[C@H](CO)[C@@H](C)O)(C3)NC(=O)[C@H](CC(N)=O)NC(=O)[C@H](Cc3ccccc3)NC(=O)[C@H](C)NC(=O)[C@H](C)NC(=O)[C@H](CC(=O)O)NC(=O)[C@H](CC(=O)O)NC1=O)NC(=O)[C@H](CC(C)(C)C)NC(=O)[C@H](CC(=O)O)NC2=O (stereo partly drawn) [I-1082, Ac-PL3-Asp-Npg-B5-Asp-Asp-Ala-Ala-Phe-Asn-PyrS2-2C1F-BztA-Thro1] | 76.5% and 77.1% and 79.9% | 14.1% and 17.4% and 20.3% | 14.0% and 21.5% and 24.0% | 17.3% and 36.1% and 37.9% | 63.9% and 71.0% and 75.0% | 38.5% and 56.2% and 62.0% |
|  | 2.766 |  | > 20 |  | 9.3 |  | 9 | 9.3 | 44 (≈ 83.2 µg/mL) | 9 | CC(=O)N1CCC[C@]12CC=CCCCC1(CCCC=CCCCCCC[C@@](C)(C(=O)N[C@@H](Cc3ccccc3Cl)C(=O)N[C@@H](Cc3csc4ccccc34)C(=O)N[C@@H](CCC(N)=O)C(N)=O)NC(=O)[C@H]([C@@H](C)O)NC(=O)[C@H](Cc3ccccc3)NC(=O)[C@H](C)NC(=O)[C@H](C)NC(=O)[C@H](CC(=O)O)NC(=O)[C@H](CC(=O)O)NC1=O)NC(=O)[C@H](CC(C)(C)C)NC(=O)[C@H](CC(=O)O)NC2=O (stereo partly drawn) [I-1087, Ac-PL3-Asp-Npg-B5-Asp-Asp-Ala-Ala-Phe-Thr-S8-2C1F-BztA-Gln-NH2] |  |  |  |  |  |  |
|  |  | 3.61 | > 20 |  | > 20 | 20 (≈ 37.5 µg/mL) | 40 |  |  |  | CC(=O)N1CCC[C@]12CC=CCCCC1(CCCC=CCCCCCC[C@@](C)(C(=O)N[C@@H](Cc3ccccc3Cl)C(=O)N[C@@H](Cc3csc4ccccc34)C(=O)N[C@@H](C(N)=O)[C@H](C)O)NC(=O)[C@H](CC(C)C)NC(=O)[C@H](Cc3ccccc3)NC(=O)[C@H](C)NC(=O)[C@H](C)NC(=O)[C@H](CC(=O)O)NC(=O)[C@H](CC(=O)O)NC1=O)NC(=O)[C@H](CC(C)(C)C)NC(=O)[C@H](CC(=O)O)NC2=O (stereo partly drawn) [I-1097, Ac-PL3-Asp-Npg-B5-Asp-Asp-Ala-Ala-Phe-Leu-S8-2C1F-BztA-dThr-NH2] |  |  |  |  |  |  |

From patent publication US20240116985A1, “STAPLED PEPTIDES AND METHODS THEREOF” (priority 2020, published 2024)
